US20240101576A1, “HETEROCYCLIC INHIBITORS OF EGFR AND/OR HER2, FOR USE IN THE TREATMENT OF CANCER” (Scorpion Therapeutics, Inc., priority 2020, published 2024)

Assays:
Assay type in all cases: cell-based
[1] = target: T1, EGFR exon 20 SVD Ins D770_N771 (Ba/F3 cells) (Homo sapiens, UniProt P00533, INS770SVD); assay: Inhibitor activity on EGFR-dependent cell growth (CellTiter-Glo, 72 h), Ba/F3 EGFR exon 20 SVD Ins; conditions: read-out: BaF3 SVD IC50
T1 construct: expressed in transfected cells; host or cells: Ba/F3 (murine pro-B cells), retroviral transduction, puromycin selection, IL3-independent pool
T1 sequence (P00533 with tags, fused parts or gaps INS770SVD): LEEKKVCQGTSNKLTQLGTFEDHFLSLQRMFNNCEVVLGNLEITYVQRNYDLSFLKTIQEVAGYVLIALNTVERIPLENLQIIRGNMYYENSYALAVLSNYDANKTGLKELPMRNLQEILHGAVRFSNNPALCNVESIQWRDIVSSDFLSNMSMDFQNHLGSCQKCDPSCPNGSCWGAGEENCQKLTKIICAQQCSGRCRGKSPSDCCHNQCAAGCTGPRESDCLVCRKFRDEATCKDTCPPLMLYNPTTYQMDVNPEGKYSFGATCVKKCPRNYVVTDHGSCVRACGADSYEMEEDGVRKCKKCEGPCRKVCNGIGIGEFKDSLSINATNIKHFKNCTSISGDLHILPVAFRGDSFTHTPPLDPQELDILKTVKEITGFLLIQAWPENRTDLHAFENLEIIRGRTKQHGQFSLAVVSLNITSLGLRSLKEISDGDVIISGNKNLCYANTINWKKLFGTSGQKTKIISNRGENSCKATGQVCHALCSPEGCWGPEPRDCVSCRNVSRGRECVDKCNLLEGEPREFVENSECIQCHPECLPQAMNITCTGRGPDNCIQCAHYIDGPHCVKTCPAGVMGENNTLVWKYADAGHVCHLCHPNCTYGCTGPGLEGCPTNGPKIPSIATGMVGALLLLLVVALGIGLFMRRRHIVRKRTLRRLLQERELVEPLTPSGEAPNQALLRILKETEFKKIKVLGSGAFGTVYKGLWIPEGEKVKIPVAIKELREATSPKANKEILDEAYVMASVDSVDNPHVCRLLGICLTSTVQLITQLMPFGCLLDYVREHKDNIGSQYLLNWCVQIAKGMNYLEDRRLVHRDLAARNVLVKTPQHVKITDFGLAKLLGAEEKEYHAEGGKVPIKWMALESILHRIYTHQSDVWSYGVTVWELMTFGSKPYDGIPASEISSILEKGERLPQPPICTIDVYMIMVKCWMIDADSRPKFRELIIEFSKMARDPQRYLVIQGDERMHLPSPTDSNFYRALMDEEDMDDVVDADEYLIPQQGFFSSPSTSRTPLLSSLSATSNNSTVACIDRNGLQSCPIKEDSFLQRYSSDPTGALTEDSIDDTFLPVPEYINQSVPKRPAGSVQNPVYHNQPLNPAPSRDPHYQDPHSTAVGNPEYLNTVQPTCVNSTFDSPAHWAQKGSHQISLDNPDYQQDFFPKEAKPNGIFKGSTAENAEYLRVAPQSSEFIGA
Procedure, shortened: (§1)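 IC50s derive from a sigmoidal dose–response fit of CellTiter-Glo signal. The signal was normalised between […]-treated cells and cell-free medium. Ba/F3 mutant-EGFR cells, seeded at 400–800/well depending on the line, had 72 h of exposure to a 10-point, 3-fold compound series.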

[2] = target: T2, EGFR WT (Ba/F3 cells) (Homo sapiens, UniProt P00533); assay: Inhibitor activity on EGFR-dependent cell growth (CellTiter-Glo, 72 h), Ba/F3 EGFR WT; conditions: read-out: BaF3 WT IC50
T2 construct: expressed in transfected cells; host or cells: Ba/F3 (murine pro-B cells), retroviral transduction, puromycin selection, maintained with EGF
T2 sequence (P00533 25-1210): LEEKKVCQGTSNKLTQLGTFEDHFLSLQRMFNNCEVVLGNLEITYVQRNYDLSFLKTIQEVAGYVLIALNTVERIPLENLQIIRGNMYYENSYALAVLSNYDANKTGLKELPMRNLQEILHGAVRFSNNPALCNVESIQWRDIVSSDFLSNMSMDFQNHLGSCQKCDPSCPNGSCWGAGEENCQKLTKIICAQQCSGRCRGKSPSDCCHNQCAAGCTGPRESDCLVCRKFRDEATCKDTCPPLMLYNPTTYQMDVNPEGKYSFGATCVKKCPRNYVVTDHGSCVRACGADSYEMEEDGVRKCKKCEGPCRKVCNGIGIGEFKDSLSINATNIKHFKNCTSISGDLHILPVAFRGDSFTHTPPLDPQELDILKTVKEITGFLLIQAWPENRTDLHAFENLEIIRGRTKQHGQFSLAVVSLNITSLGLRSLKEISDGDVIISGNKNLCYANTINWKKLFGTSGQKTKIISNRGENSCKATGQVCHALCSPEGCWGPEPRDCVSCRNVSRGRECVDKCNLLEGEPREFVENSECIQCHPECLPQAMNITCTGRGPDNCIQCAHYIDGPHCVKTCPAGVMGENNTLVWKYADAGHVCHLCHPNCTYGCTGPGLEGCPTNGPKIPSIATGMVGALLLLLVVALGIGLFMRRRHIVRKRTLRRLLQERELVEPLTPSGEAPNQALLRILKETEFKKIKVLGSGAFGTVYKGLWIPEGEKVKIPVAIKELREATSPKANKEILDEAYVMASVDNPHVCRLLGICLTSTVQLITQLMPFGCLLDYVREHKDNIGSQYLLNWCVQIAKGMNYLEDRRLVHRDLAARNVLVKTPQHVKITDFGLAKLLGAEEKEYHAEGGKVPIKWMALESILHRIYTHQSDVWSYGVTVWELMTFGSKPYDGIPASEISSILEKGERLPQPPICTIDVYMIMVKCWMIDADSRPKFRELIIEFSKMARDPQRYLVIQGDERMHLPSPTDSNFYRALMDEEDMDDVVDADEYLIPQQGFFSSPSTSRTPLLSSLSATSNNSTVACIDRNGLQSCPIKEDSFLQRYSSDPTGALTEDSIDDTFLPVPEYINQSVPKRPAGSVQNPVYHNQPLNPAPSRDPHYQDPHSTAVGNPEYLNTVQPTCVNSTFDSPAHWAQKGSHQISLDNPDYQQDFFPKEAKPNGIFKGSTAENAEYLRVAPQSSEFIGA
Procedure, shortened: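 This growth assay used Ba/F3 cells that depend on wild-type EGFR and are kept in EGF without IL3. Compounds were made up as 10 mM DMSO stocks and diluted 3-fold over 10 points. 120 nL went onto 600 cells/well. After 72 hours, 40 μL CellTiter-Glo was added and luminescence read on EnVision after 30 min.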

[3] = target: T3, EGFR exon 20 ASV Ins V769_D770 (Ba/F3 cells) (Homo sapiens, UniProt P00533, INS769ASV); assay: Inhibitor activity on EGFR-dependent cell growth (CellTiter-Glo, 72 h), Ba/F3 EGFR exon 20 ASV Ins; conditions: read-out: BaF3 ASV IC50
T3 construct: expressed in transfected cells; host or cells: Ba/F3 (murine pro-B cells), retroviral transduction, puromycin selection, IL3-independent pool
T3 sequence (P00533 with tags, fused parts or gaps INS769ASV): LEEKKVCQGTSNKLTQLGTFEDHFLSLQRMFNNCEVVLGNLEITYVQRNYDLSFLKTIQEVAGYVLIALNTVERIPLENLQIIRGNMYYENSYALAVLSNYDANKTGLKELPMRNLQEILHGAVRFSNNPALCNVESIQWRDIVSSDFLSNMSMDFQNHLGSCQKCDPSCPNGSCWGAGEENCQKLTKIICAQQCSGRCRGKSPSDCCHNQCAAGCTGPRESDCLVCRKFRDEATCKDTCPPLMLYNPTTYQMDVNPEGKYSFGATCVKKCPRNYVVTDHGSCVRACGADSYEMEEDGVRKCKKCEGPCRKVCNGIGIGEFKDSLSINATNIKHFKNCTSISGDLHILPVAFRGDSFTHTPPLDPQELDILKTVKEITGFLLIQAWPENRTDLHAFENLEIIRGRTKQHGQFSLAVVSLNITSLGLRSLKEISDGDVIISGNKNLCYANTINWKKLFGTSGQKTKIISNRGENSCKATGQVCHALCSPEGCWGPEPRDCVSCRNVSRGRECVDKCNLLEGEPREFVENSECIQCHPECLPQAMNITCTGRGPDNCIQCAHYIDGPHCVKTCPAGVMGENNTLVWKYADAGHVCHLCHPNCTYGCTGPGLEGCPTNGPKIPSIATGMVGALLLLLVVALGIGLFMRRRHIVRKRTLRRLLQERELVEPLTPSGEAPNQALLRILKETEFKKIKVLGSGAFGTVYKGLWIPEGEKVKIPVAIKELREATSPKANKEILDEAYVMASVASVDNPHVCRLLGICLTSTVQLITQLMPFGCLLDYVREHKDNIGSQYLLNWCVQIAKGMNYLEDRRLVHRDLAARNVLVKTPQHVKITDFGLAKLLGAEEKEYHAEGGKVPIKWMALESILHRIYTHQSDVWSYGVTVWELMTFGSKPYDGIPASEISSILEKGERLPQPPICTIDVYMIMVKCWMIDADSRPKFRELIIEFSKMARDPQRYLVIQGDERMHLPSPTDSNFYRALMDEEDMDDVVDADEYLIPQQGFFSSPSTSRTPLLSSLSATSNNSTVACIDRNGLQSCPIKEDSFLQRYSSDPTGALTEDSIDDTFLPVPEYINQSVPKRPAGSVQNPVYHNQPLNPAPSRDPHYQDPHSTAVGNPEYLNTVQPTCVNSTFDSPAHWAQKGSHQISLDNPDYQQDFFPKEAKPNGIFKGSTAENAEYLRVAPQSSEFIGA
Procedure, shortened: as §1

[4] = target: T4, EGFR exon 20 NPG Ins D770_N771 (Ba/F3 cells) (Homo sapiens, UniProt P00533, INS770NPG); assay: Inhibitor activity on EGFR-dependent cell growth (CellTiter-Glo, 72 h), Ba/F3 EGFR exon 20 NPG Ins; conditions: read-out: BaF3 NPG IC50
T4 construct: expressed in transfected cells; host or cells: Ba/F3 (murine pro-B cells), retroviral transduction, puromycin selection, IL3-independent pool
T4 sequence (P00533 with tags, fused parts or gaps INS770NPG): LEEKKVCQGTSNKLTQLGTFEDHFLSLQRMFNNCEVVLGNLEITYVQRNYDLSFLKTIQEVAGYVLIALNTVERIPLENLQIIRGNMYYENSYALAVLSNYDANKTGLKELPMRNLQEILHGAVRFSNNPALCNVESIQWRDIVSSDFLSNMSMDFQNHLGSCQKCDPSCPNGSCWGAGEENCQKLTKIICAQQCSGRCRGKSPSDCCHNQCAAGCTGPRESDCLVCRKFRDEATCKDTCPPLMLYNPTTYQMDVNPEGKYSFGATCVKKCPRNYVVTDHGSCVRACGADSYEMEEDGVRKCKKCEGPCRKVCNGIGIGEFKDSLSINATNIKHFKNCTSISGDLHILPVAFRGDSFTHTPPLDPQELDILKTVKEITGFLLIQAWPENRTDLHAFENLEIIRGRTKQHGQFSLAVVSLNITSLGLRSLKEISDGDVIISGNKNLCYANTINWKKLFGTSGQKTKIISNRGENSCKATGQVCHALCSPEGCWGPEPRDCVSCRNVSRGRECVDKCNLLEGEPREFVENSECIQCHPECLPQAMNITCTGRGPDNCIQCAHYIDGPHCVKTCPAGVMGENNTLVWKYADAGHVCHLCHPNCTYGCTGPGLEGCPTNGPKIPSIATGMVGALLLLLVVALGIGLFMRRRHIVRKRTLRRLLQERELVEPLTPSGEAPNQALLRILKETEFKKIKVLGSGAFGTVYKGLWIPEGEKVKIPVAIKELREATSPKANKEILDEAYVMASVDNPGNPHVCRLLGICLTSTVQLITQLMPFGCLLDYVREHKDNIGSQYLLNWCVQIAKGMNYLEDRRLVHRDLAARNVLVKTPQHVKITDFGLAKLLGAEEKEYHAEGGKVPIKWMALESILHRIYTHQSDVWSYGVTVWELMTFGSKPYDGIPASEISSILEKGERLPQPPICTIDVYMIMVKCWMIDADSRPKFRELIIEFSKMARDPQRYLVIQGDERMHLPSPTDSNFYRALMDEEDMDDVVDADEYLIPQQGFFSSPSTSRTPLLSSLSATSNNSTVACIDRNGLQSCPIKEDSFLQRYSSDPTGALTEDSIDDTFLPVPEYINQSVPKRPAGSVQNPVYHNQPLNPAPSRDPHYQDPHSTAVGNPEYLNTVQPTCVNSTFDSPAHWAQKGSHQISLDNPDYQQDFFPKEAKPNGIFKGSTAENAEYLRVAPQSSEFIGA
From the text: Example A. Inhibitor Activity on EGFR-Dependent Cell Growth
Cell lines are generated by transducing Ba/F3 cells with retroviruses containing vectors with EGFR WT, EGFR L858R, EGFR exon 19del, EGFR L858R/C797S, EGFR exon 20 NPG Ins D770_N771, EGFR exon 20 ASV Ins V769_D770, EGFR exon 20 SVD Ins D770_N771, or EGFR exon 20 FQEA Ins A763_V764 genes and a puromycin selection marker. Transduced cells are selected with puromycin for 7 days and are then be transferred into culture media without Interleukin 3 (IL3). EGFR WT cells are maintained with supplemental EGF. Surviving cells are confirmed to express EGFR by Western blot and maintained as a pool. The IC50 date were included in Table 6 and Table 7.
1.1 Cells are harvested from flask into cell culture medium and the cell number counted.
1.2 Cells are diluted with culture medium to the desired density and 40 μL of cell suspension is added into each well of 384-well cell culture plate and the seeding density is 800 (FQEA, exon 19del), 600 (WT, NPG, L858R/C797S), or 400 (ASV, SVD, L858R) cells/well.
2 Compound Preparation and Treatment
2.1 Test compounds are dissolved to 10 mM in a DMSO stock solution. 45 μL of stock solution is transferred to a 384 polypropylene plate (pp-plate). Perform 3-fold, 10-point dilution via transferring 15 μL compound into 30 μL DMSO using a TECAN (EVO200) liquid handler.
2.2 Spin plates at room temperature at 1,000 RPM for 1 minute.
2.3 Transfer 120 nL of diluted compound from compound source plate into the cell plate.
2.4 After compound treatment for 72 hours, perform CTG detection for compound treatment plates as described in “Detection” section.
3.1 Plates are removed from incubators and equilibrated at room temperature for 15 minutes.
3.2 Thaw the CellTiter Glo reagents and allow to equilibrate to room temperature before the experiment.
3.3 Add 40 μL of CellTiter-Glo reagent into each well (at 1:1 to culture medium). Then place the plates at room temperature for 30 min followed by reading on EnVision.
4.1 Inhibition activity is calculated following the formula below:
% Inhibition=100×(LumHC−LumSample)/(LumHC−LumLC) • where HC is obtained from cells treated with 0.1% DMSO only; and LC is obtained from culture medium only.
4.2 2. Calculate the IC50 by fitting the Curve using Xlfit (v5.3.1.3), equation 201.
Y=Bottom+(Top−Bottom)/(1+10^((Log IC50−X)*HillSlope))

IC50 [1] [nM]	IC50 [2] [nM]	IC50 [3] [nM]	IC50 [4] [nM]	SMILES
> 1000	> 1000	> 1000	> 1000	COc1c(Cl)cccc1Nc1c(-c2ccnc(Nc3nnn(C)c3C)n2)[nH]c2c1C(=O)NCC2 [compound 607, 3-[(3-chloro-2-methoxyphenyl)amino]-2-{2-[(1,5-dimethyl-1,2,3-triazol-4-yl)amino]pyrimidin-4-yl}-1H,5H,6H,7H-pyrrolo[3,2-c]pyridin-4-one]
< 100	100 to 1000	< 100	< 100	C=CC(=O)NCC[C@@H]1CNC(=O)c2c1[nH]c(-c1ccnc(C)n1)c2Nc1cccc(Cl)c1OC [compound 654]
< 100	100 to 1000	< 100	< 100	C=CC(=O)N1CCC2(CC1)CNC(=O)c1c2[nH]c(-c2ccncc2F)c1Nc1ccc(F)c(Cl)c1 [Compound 587, 3′-[(3-chloro-4-fluorophenyl)amino]-2′-(3-fluoropyridin-4-yl)-1-(prop-2-enoyl)-5′,6′-dihydro-1′H-spiro[piperidine-4,7′-pyrrolo[3,2-c]pyridin]-4′-one]
< 100	> 1000	100 to 1000	< 100	COc1c(Cl)cccc1Nc1c(-c2ccnc(-c3cnn(C)n3)n2)[nH]c2c1C(=O)NCC2 [compound 543, 3-[(3-chloro-2-methoxyphenyl)amino]-2-[2-(2-methyl-1,2,3-triazol-4-yl)pyrimidin-4-yl]-1H,5H,6H,7H-pyrrolo[3,2-c]pyridin-4-one]
100 to 1000	> 1000	100 to 1000	100 to 1000	COc1c(F)cccc1Nc1c(-c2ccncn2)[nH]c2c1C(=O)NC[C@@H]2C[C@@H]1COCCO1 [Compound 529, (7S)-7-[(2R)-1,4-dioxan-2-ylmethyl]-3-[(3-fluoro-2-methoxyphenyl)amino]-2-(pyrimidin-4-yl)-1H,5H,6H,7H-pyrrolo[3,2-c]pyridin-4-one]
< 100	100 to 1000	< 100	< 100	C=CC(=O)N1CCC2(CC1)CNC(=O)c1c2[nH]c(-c2ccnc(C)n2)c1Nc1cc(F)cc(Cl)c1OC [compound 642]
< 100	100 to 1000	< 100	< 100	CCn1nncc1Nc1nccc(-c2[nH]c3c(c2Nc2cccc(Cl)c2OC)C(=O)NCC3)n1 [compound 538, 3-[(3-chloro-2-methoxyphenyl)amino]-2-{2-[(3-ethyl-1,2,3-triazol-4-yl)amino]pyrimidin-4-yl}-1H,5H,6H,7H-pyrrolo[3,2-c]pyridin-4-one]
> 1000	> 1000	> 1000	> 1000	CC#CC(=O)N1CCC2(CC1)CNC(=O)c1c2[nH]c(-c2ccncc2F)c1Nc1cccc(Cl)c1OC [Compound 555, 1-(but-2-ynoyl)-3′-[(3-chloro-2-methoxyphenyl)amino]-2′-(3-fluoropyridin-4-yl)-5′,6′-dihydro-1′H-spiro[piperidine-4,7′-pyrrolo[3,2-c]pyridin]-4′-one]
< 100	100 to 1000	< 100	< 100	C=CC(=O)N1CCC2(CC1)CNC(=O)c1c2[nH]c(-c2ccncc2F)c1Nc1cccc(F)c1F [Compound 585, 3′-[(2,3-difluorophenyl)amino]-2′-(3-fluoropyridin-4-yl)-1-(prop-2-enoyl)-5′,6′-dihydro-1′H-spiro[piperidine-4,7′-pyrrolo[3,2-c]pyridin]-4′-one]
100 to 1000	100 to 1000	100 to 1000	100 to 1000	COc1ncc2nccc(-c3[nH]c4c(c3Nc3cccc(F)c3OC)C(=O)NC(C(F)(F)F)C4)c2n1 (stereo not drawn) [Compound 595, 3-[(3-fluoro-2-methoxyphenyl)amino]-2-{2-methoxypyrido[3,2-d]pyrimidin-8-yl}-6-(trifluoromethyl)-1H,5H,6H,7H-pyrrolo[3,2-c]pyridin-4-one]
> 1000	> 1000	> 1000	100 to 1000	COc1c(Cl)cccc1Nc1c(-c2ccnc(-c3ccnnc3)n2)[nH]c2c1C(=O)NCC2 [compound 542, 3-[(3-chloro-2-methoxyphenyl)amino]-2-[2-(pyridazin-4-yl)pyrimidin-4-yl]-1H,5H,6H,7H-pyrrolo[3,2-c]pyridin-4-one]
< 100	100 to 1000	< 100	< 100	C=CC(=O)N1CCC2(CC1)CNC(=O)c1c2[nH]c(-c2ccncc2F)c1Nc1cccc(Cl)c1F [Compound 586, 3′-[(3-chloro-2-fluorophenyl)amino]-2′-(3-fluoropyridin-4-yl)-1-(prop-2-enoyl)-5′,6′-dihydro-1′H-spiro[piperidine-4,7′-pyrrolo[3,2-c]pyridin]-4′-one]
< 100	< 100	< 100	< 100	C=CC(=O)N1CCC2(CC1)CNC(=O)c1c2[nH]c(-c2ccncn2)c1Nc1cccc(Cl)c1OC [Compound 478, 3′-[(3-chloro-2-methoxyphenyl)amino]-1-(prop-2-enoyl)-2′-(pyrimidin-4-yl)-5′,6′-dihydro-1′H-spiro[piperidine-4,7′-pyrrolo[3,2-c]pyridin]-4′-one]
100 to 1000	> 1000	100 to 1000	100 to 1000	C=CC(=O)NCC[C@H]1CNC(=O)c2c1[nH]c(-c1ccnc(C)n1)c2Nc1cccc(Cl)c1OC [compound 653]
100 to 1000	> 1000	100 to 1000	< 100	COc1c(Cl)cccc1Nc1c(-c2ccnc(-c3cn(C)nn3)n2)[nH]c2c1C(=O)NCC2 [compound 545, 3-[(3-chloro-2-methoxyphenyl)amino]-2-[2-(1-methyl-1,2,3-triazol-4-yl)pyrimidin-4-yl]-1H,5H,6H,7H-pyrrolo[3,2-c]pyridin-4-one]
< 100	100 to 1000	100 to 1000	< 100	COc1c(F)cccc1Nc1c(-c2ccnc3c(N)noc23)[nH]c2c1C(=O)NCC2 [compound 523, 2-{3-amino-[1,2]oxazolo[4,5-b]pyridin-7-yl}-3-[(3-fluoro-2-methoxyphenyl)amino]-1H,5H,6H,7H-pyrrolo[3,2-c]pyridin-4-one; trifluoroacetic acid]
100 to 1000	> 1000	100 to 1000	100 to 1000	COc1c(Cl)cccc1Nc1c(-c2ccncc2F)[nH]c2c1C(=O)NCC2C[C@H]1CO[C@H](CN(C)C)CO1 (single isomer, unassigned) [Compound 564, (7R*)-3-[(3-chloro-2-methoxyphenyl)amino]-7-{[(2S,5R)-5-[(dimethylamino)methyl]-1,4-dioxan-2-yl]methyl}-2-(3-fluoropyridin-4-yl)-1H,5H,6H,7H-pyrrolo[3,2-c]pyridin-4-one]
100 to 1000	> 1000	100 to 1000	> 1000	CC#CC(=O)N1CCC2(CC1)CNC(=O)c1c2[nH]c(-c2ccncc2F)c1Nc1cccc(F)c1OC [Compound 609, 1-(but-2-ynoyl)-3′-[(3-fluoro-2-methoxyphenyl)amino]-2′-(3-fluoropyridin-4-yl)-5′,6′-dihydro-1′H-spiro[piperidine-4,7′-pyrrolo[3,2-c]pyridin]-4′-one]
